Reference: US20200323888A1, “INHIBITORS” (VESTLANDETS INNOVASJONSSELSKAP AS, priority 2017, published 2020)

How the values were obtained:
[1] = target: T1, Naa50 (Homo sapiens, UniProt Q9GZZ1); assay: Nt-acetylation inhibitor assay (DTNB), Naa50; type: biochemical; conditions: calculated from IC50 with Cheng-Prusoff equation
T1 sequence (Q9GZZ1 1-169): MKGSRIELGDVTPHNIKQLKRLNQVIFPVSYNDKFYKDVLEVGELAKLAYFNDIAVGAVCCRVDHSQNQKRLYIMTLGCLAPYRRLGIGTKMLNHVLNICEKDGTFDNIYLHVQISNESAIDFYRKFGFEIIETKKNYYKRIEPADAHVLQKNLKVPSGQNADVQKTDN
Description: (§1) The IC50 values for these compounds were tested as described in Foyn H, et al. (2013) “Design, Synthesis, and Kinetic Characterization of Protein N-Terminal Acetyltransferase Inhibitors”. ACS Chem Biol 8:1121-1127; and Foyn H, et al. (2017) “DTNB-Based quantification of in vitro enzymatic N-terminal acetyltransferase activity”, Methods Mol. Biol. 1574:9-15. Briefly, a colorimetric acetylation assay, 5,5′-dithiobis-(2-nitrobenzoic acid) (DTNB) assay was used to measure the catalytic activity of NATs after incubation with NAT inhibitors. […] Therefore, NTB- was quantified by measuring the absorbance at 412 nm and indirectly measures peptide Nt-acetylation. […] In order to measure CoA production, 2 mM DTNB (dissolved in 100 mM sodium phosphate dibasic pH 6.8 and 10 mM EDTA) was added to the quenched reaction and the absorbance at 412 nm was measured with a spectrophotometer (Epoc). Background absorbance (determined in negative controls) was subtracted from the absorbance determined in each individual reaction. Thiophenolate production was quantified assuming ε=13.7×103 M−1 cm−1. […] A similar Nt-acetylation reaction was performed as previously described and the enzymatic activity was quenched with a final concentration of 1% TFA and analyzed by HPLC (Evjenth R, Van Damme P, Gevaert K, Arnesen T (2013) HPLC-based Quantification of in vitro N-terminal Acetylation. Methods Mol Biol 981:95-102.). […]

[2] = target: T2, Naa30 (Homo sapiens, UniProt Q147X3); assay: Nt-acetylation inhibitor assay (DTNB), Naa30; type: biochemical; conditions: calculated from IC50 with Cheng-Prusoff equation
T2 sequence (Q147X3 1-362): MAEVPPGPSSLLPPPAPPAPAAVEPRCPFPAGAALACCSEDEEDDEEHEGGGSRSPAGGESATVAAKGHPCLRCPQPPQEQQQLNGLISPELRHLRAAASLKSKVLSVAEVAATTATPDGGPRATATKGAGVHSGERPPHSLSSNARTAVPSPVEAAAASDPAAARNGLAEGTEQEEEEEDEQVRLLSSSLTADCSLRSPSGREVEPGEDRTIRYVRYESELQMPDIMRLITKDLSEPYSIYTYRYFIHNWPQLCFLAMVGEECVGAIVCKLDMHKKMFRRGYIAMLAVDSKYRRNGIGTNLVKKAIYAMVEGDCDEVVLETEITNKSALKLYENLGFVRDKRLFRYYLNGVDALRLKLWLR
Description: as §1

[3] = target: T3, NatA (Homo sapiens, UniProt P41227); assay: Nt-acetylation inhibitor assay, immunoprecipitated NatA complex, HPLC quantification; type: biochemical
T3 construct: endogenous in cells
T3 sequence (P41227 1-235): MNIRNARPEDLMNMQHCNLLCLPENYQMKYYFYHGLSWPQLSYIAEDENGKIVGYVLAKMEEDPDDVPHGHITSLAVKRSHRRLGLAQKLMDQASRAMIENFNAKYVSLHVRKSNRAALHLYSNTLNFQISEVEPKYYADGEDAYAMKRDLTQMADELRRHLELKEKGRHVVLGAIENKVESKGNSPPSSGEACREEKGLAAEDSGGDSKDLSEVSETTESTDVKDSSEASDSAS
T3 sequence (Q9BXJ9 1-866 partner): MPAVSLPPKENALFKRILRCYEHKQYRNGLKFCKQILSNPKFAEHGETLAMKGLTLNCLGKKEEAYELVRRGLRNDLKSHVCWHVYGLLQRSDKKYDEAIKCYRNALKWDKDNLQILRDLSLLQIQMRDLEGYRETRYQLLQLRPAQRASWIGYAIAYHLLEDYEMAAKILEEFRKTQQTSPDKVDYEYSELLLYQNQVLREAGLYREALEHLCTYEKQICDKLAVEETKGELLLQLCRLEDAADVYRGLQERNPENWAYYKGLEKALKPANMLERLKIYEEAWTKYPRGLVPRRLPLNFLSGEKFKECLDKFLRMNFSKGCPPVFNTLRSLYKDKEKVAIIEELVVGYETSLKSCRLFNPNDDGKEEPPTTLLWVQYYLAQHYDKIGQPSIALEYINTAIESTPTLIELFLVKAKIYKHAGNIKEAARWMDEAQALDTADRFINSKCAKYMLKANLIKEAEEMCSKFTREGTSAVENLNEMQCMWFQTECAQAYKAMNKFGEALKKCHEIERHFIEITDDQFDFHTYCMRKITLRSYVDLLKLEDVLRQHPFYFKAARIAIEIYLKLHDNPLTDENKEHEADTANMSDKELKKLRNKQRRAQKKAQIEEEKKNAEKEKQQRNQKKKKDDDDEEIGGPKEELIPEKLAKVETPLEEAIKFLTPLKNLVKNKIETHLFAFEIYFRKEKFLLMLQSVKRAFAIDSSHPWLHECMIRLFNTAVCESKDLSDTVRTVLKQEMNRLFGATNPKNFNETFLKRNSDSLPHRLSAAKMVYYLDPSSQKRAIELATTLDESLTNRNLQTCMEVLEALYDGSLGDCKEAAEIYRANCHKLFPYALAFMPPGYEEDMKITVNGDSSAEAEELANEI
Description: The IC50 values for these compounds were tested as described in Foyn H, et al. (2013) “Design, Synthesis, and Kinetic Characterization of Protein N-Terminal Acetyltransferase Inhibitors”. ACS Chem Biol 8:1121-1127; and Foyn H, et al. (2017) “DTNB-Based quantification of in vitro enzymatic N-terminal acetyltransferase activity”, Methods Mol. Biol. 1574:9-15. Briefly, a colorimetric acetylation assay, 5,5′-dithiobis-(2-nitrobenzoic acid) (DTNB) assay was used to measure the catalytic activity of NATs after incubation with NAT inhibitors. In the DTNB assay, thiols present in the enzymatic product, CoA, cleaves DTNB and produces 2-nitro-5-thiobenzoate (NTB-), which absorbs light with a wavelength of 412 nm. NTB- forms in a 1:1 molar ratio to the thiol groups present in the sample. Therefore, NTB- was quantified by measuring the absorbance at 412 nm and indirectly measures peptide Nt-acetylation. Recombinant purified NAT enzyme was mixed with different substrate peptides (300 uM, custom-made) and Ac-CoA (300 uM) in acetylation buffer (50 mM Tris/HEPES pH 8.5-7.4, 100 mM NaCl, 10% glycerol and 0.2 mM EDTA) and with inhibitor concentration (0-500 uM). After 30 min-60 min incubation at 37° C., the enzyme activity was quenched with quenching buffer (3.2 M guanidinium-HCl, 100 mM sodium phosphate dibasic pH 6.8). Triplicates were run for all positive samples, while negative controls were duplicated. As a negative control, reactions without enzyme were incubated at 37° C. before the reaction was quenched and added enzyme. In order to measure CoA production, 2 mM DTNB (dissolved in 100 mM sodium phosphate dibasic pH 6.8 and 10 mM EDTA) was added to the quenched reaction and the absorbance at 412 nm was measured with a spectrophotometer (Epoc). Background absorbance (determined in negative controls) was subtracted from the absorbance determined in each individual reaction. Thiophenolate production was quantified assuming ε=13.7×103 M−1 cm−1. […] A similar Nt-acetylation reaction was performed as previously described and the enzymatic activity was quenched with a final concentration of 1% TFA and analyzed by HPLC (Evjenth R, Van Damme P, Gevaert K, Arnesen T (2013) HPLC-based Quantification of in vitro N-terminal Acetylation. Methods Mol Biol 981:95-102.).
In order to ensure selectivity towards NatA, the CoA-Ac-SSNIeP (SEQ ID NO: 4) was tested against other NATs. Using the Cheng-Prusoff equation for competitive inhibitors, the dissociation constant, Ki, was calculated from IC50 values and [S]/Km ratios for all the NATs.

[4] = target: NatB (Homo sapiens, UniProt P61599); assay: Nt-acetylation inhibitor assay, immunoprecipitated NatB complex, HPLC quantification; type: biochemical; set-up: endogenous in cells; conditions: calculated from IC50 with Cheng-Prusoff equation
Description: as §1

[5] = test system: zebrafish embryos; assay: Phenotype after injection into zebrafish embryos; type: in vivo; conditions: injected into zebrafish embryos; compared with reference inhibitor
Text: A norleucine (Nle) residue was therefore tried in place of methionine in order to try to circumvent the synthesis problem.

[6] = target: T4, Naa10 (Homo sapiens, UniProt P41227); assay: Nt-acetylation inhibitor assay (DTNB), Naa10; type: biochemical; conditions: Naa10; calculated from IC50 with Cheng-Prusoff equation
T4 sequence (P41227 1-235): T3 sequence (P41227 1-235)
Description: as §1

[7] = target: Naa40 (Homo sapiens, UniProt Q86UY6); assay: Nt-acetylation inhibitor assay (DTNB), Naa40; type: biochemical; conditions: calculated from IC50 with Cheng-Prusoff equation
Description: as §1

[8] = target: Naa60 (Homo sapiens, UniProt Q9H7X0); assay: Nt-acetylation inhibitor assay (DTNB), Naa60; type: biochemical; conditions: calculated from IC50 with Cheng-Prusoff equation
Description: as §1

Chain of Naa60 (Q9H7X0 whole entry, looked up): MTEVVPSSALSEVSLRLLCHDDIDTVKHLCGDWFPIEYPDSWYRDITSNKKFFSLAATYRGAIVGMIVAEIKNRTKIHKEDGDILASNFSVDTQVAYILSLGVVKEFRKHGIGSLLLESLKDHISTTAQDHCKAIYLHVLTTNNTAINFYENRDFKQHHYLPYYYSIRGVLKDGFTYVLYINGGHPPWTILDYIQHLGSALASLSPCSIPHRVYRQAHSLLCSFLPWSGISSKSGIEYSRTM
Chain of NatB (P61599 whole entry): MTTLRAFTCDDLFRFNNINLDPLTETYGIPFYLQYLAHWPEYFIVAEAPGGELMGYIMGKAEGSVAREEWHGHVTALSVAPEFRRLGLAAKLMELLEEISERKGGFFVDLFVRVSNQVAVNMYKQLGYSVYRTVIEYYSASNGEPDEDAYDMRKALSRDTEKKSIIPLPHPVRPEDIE
Chain of NatB (Q14CX7 whole entry partner): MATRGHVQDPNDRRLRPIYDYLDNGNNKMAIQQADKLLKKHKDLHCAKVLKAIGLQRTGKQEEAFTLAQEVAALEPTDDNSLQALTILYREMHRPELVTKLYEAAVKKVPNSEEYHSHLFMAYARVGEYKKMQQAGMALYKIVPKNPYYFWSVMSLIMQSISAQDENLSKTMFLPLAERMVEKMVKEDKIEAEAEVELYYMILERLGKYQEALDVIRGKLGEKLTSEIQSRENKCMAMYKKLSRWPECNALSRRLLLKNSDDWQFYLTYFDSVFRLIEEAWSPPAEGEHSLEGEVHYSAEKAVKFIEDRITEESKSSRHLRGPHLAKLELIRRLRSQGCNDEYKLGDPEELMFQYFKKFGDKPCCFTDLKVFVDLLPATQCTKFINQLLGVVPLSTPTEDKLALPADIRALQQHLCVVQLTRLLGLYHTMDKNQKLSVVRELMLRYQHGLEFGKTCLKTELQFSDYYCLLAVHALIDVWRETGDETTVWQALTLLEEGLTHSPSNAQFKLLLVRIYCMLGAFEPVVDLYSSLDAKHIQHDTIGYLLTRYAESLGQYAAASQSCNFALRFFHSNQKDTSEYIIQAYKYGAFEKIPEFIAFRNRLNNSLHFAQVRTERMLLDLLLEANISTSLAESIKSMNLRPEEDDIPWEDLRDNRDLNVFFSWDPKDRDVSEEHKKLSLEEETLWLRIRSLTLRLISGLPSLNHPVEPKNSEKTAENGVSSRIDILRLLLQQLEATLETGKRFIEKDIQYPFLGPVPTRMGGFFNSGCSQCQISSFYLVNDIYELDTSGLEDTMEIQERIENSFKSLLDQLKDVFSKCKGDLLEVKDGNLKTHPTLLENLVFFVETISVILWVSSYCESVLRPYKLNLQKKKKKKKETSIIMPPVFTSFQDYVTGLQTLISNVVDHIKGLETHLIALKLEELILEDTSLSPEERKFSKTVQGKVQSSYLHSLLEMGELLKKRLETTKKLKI

CCCC[C@H](NC(=O)[C@H](CO)NC(=O)[C@H](CO)NC(=O)CSCCNC(=O)CCNC(=O)C(O)C(C)(C)COP(=O)(O)OP(=O)(O)OCC1OC(n2cnc3c(N)ncnc32)C(O)C1OP(=O)(O)O)C(=O)N1CCC[C@H]1C(N)=O (stereo partly shown) [CoA-Ac-SS(Nle)P] gave a Ki [1] of 17.7 ± 7.4 µM, a Ki [2] of 132 µM and a Ki ([3]; NatA, calculated from IC50 with Cheng-Prusoff equation) of 0.143 ± 0.03 µM. For the same molecule, the IC50 ([3]; inhibitors tested against NatA, all compounds with C-terminal amide) was 1.46 ± 0.29 µM, the “more potent towards NatA than all the other NATs tested” value ([3]; selectivity from Ki values of Table 2) was “at least 100 fold” and the Ki [4] was 41.6 ± 51.2 µM. For the same molecule, the phenotype in zebrafish [5] was “same phenotype in zebrafish as SSMP”, the Ki [6] was 98.9 µM and the Ki [7] was 41.9 ± 6.4 µM. For the same molecule, the Ki [8] was 3.1 ± 0.8 µM.
